These compounds were tested against T1, NLRP3 inflammasome (Homo sapiens, UniProt Q96P20) (assay: Evaluation of NLRP3 inflammasome inhibitory activity (inhibition of IL-1β production in THP1-Null cells)). Conditions: 0.5 µmol/L PMA overnight, 1 µg/mL Lipopolysaccharides 3 hours, Nigericin 7.5 µmol/L 1.5 hours, AlphaLISA Human IL-1β.
T1 construct: host or cells: THP1-Null cells (PMA-differentiated, LPS-primed, nigericin-stimulated)
Format: cell-based
Procedure: The NLRP3 inflammasome inhibitory activity of test compounds were evaluated on the basis of the inhibitory activity of the IL-1β production in THP1-Null cells (Product Number: thp-null, InvivoGen). Cells were maintained for culture in RPMI-1640 media containing 10% (v/v) fetal bovine serum, 25 mmol/L HEPES, 100 U/mL penicillin, 100 µg/mL streptomycin, 100 µg/mL normocin, and 200 µg/mL hygromycin B (set at 37°C, 5% CO2/95% air) .
Cells were suspended with media for assay containing 0.5 µmol/L PMA (RPMI-1640 media containing 10% (v/v) fetal bovine serum, 100 U/mL penicillin, and 100 µg/mL streptomycin), and the suspended cells were seeded on Corning (registered trademark) 384-well Flat Clear Bottom Black Polystyrene TC-treated Microplates (25,000 cells/25 µL/well), followed by incubation (set at 37°C, 5% CO2/95% air) overnight. The supernatant of the culture was removed, and thereto was added media for assay (25 µL/well) containing 1 µg/mL Lipopolysaccharides (Product Number: L2654, Sigma-Aldrich (registered trademark)). Then, the culture was further incubated for 3 hours (set at 37°C, 5% CO2/95% air) . The supernatant of the culture was removed. Then, a vehicle solution prepared from Opti-MEM (trademark) medium (Product Number: 31985-070, Invitrogen) was added to blank-setting wells and control-setting wells (20 µL/well), followed by incubation for 15 minutes (set at 37°C, 5% CO2/95% air). A solution containing a test compound (20 µL/well) was added to test compound-setting wells. Further, Opti-MEM (trademark) medium containing Nigericin (Product Number: N7143, Sigma-Aldrich (registered trademark)) was added to the control-setting wells and test compound-setting wells (5 µL/well), followed by incubation for 1.5 hours (set at 37°C, 5% CO2/95% air). The final concentration of Nigericin was adjusted to be 7.5 µmol/L. 5 µL/well of Opti-MEM (trademark) medium was added to the blank-setting wells. The supernatant of the culture was cryonically stored (set at -20°C) until measurement of IL-1β.
The amount of IL-1β in the culture supernatant was quantitated with AlphaLISA (registered trademark) Human IL-1β Detection Kit (Product Number: AL220C, Perkin Elmer). Fluorescence intensity was measured with a microplate reader EnSpier (Model number: 2300-00J, Perkin Elmer) or EnSight (Model number: HH34000000, Perkin Elmer) according to procedure manuals attached thereto. Inhibition rates of the test compound-setting wells were calculated on the basis of 100% for the blank-setting wells and 0% for the control-setting wells. IC50 values (i.e., 50% inhibitory concentrations) of the test compounds were calculated by logistic regression analysis.

T1 sequence (Q96P20 whole entry): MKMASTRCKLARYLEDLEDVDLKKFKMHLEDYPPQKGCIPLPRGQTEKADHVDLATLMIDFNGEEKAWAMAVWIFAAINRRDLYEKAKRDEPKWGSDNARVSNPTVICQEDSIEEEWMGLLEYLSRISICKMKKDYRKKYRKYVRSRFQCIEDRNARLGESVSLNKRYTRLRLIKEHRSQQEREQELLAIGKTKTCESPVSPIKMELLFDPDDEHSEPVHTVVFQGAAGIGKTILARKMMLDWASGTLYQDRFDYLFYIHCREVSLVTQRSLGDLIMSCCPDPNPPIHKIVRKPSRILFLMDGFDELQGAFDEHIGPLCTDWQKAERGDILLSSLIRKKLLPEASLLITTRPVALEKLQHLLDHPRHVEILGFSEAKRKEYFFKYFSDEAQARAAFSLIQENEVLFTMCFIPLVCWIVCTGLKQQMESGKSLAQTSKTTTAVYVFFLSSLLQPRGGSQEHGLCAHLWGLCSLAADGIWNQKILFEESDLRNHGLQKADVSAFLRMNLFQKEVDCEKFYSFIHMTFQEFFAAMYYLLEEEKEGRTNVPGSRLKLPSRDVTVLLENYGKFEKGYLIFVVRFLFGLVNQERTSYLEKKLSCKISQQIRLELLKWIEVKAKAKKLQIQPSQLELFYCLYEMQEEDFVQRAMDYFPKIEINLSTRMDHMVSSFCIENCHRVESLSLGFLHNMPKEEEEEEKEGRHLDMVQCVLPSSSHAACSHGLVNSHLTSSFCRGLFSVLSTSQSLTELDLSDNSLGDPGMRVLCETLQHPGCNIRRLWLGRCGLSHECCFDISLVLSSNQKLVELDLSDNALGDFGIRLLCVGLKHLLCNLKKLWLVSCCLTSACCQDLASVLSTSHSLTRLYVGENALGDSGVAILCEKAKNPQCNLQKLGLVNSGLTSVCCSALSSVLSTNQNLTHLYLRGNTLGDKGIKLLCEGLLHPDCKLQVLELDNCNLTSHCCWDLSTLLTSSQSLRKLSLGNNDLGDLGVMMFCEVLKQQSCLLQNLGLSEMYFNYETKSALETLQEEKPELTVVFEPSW

Compound | IC50
COc1nc2nn(-c3ccc(Br)cc3C(O)C3CC3)cc2c(=O)[nH]1 (racemic) [Example 53] | 0.16 µM
COc1nc2nn(-c3c(C)cc(C4CC4(F)F)cc3C)cc2c(=O)[nH]1 (racemic) [Example 120] | 0.088 µM
COc1nc2nn(-c3ccccc3C)cc2c(=O)[nH]1 [Example 1] | 4.2 µM
COc1nc2nn(-c3ccc(C)cc3C)cc2c(=O)[nH]1 [Example 2] | 0.079 µM
Cc1cc(C)c(-n2cc3c(=O)[nH]c(OCC4CC4)nc3n2)c(C)c1 [Example 3] | 0.009 µM
COCCOc1nc2nn(-c3c(C)cc(C)cc3C)cc2c(=O)[nH]1 [Example 4] | 0.074 µM
Cc1cc(C)c(-n2cc3c(=O)[nH]c(OC(C)C)nc3n2)c(C)c1 [Example 5] | 0.034 µM
Cc1cc(C)c(-n2cc3c(=O)[nH]c(OCC(F)(F)F)nc3n2)c(C)c1 [Example 6] | 0.18 µM
Cc1cc(C)c(-n2cc3c(=O)[nH]c(OCc4ccccc4)nc3n2)c(C)c1 [Example 7] | 0.072 µM
COc1nc2nn(-c3c(C)cc(C)cc3C)cc2c(=O)[nH]1 [Example 8] | 0.037 µM
CCOc1nc2nn(-c3c(C)cc(C)cc3C)cc2c(=O)[nH]1 [Example 9] | 0.023 µM
[2H]C([2H])([2H])Oc1nc2nn(-c3ccc(C(F)(F)F)cc3OC([2H])([2H])[2H])cc2c(=O)[nH]1 [Example 10] | 0.061 µM
COc1nc2nn(-c3ccc(Cl)cc3C)cc2c(=O)[nH]1 [Example 11] | 0.05 µM
COc1nc2nn(-c3c(C)cc(Br)cc3C)cc2c(=O)[nH]1 [Example 12, 2-(4-bromo-2,6-dimethylphenyl)-6-methoxy-2,5-dihydro-4H-pyrazolo[3,4-d]pyrimidin-4-one] | 0.009 µM
COc1cc(C)c(-n2cc3c(=O)[nH]c(OC)nc3n2)c(C)c1 [Example 13, 6-methoxy-2-(4-methoxy-2,6-dimethylphenyl)-2,5-dihydro-4H-pyrazolo[3,4-d]pyrimidin-4-one] | 0.022 µM
COc1nc2nn(-c3c(C)cc(C4CC4)cc3C)cc2c(=O)[nH]1 [Example 14] | 0.008 µM
COc1nc2nn(-c3c(Cl)cc(C(F)(F)F)cc3OC)cc2c(=O)[nH]1 [Example 15] | 1.3 µM
Cc1cc(Br)cc(C)c1-n1cc2c(=O)[nH]c(OC3CCOCC3)nc2n1 [Example 16] | 0.025 µM
Cc1cc(Br)cc(C)c1-n1cc2c(=O)[nH]c(OCC3(C#N)CC3)nc2n1 [Example 17] | 0.073 µM
COCC1(COc2nc3nn(-c4c(C)cc(Br)cc4C)cc3c(=O)[nH]2)CC1 [Example 18] | 0.034 µM
Cc1cc(Br)cc(C)c1-n1cc2c(=O)[nH]c(OCCC(C)(C)O)nc2n1 [Example 20] | 0.022 µM
Cc1cc(Br)cc(C)c1-n1cc2c(=O)[nH]c(OCC(C)(C)O)nc2n1 [Example 21] | 0.074 µM
COc1nc2nn(-c3c(C)cc(C(F)(F)F)cc3C)cc2c(=O)[nH]1 [Example 22] | 0.043 µM

Compound | IC50
COc1nc2nn(-c3c(C)cc(Br)cc3C)cc2c(=O)n1C [Example 23] | 0.68 µM
COc1ccc(-n2cc3c(=O)[nH]c(OC)nc3n2)c(C(F)(F)F)c1 [Example 24] | 0.053 µM
Cc1cc(Br)cc(C)c1-n1cc2c(=O)[nH]c(OCCN(C)C)nc2n1 [Example 25] | 0.053 µM
COc1nc2nn(-c3cc(C)c(Cl)cc3C)cc2c(=O)[nH]1 [Example 26] | 1.2 µM
COc1nc2nn(-c3c(C)cc(C4(O)CCC4)cc3C)cc2c(=O)[nH]1 [Example 27] | 0.99 µM
COc1nc2nn(-c3c(C)cc(C4CC4)cc3F)cc2c(=O)[nH]1 [Example 28] | 0.015 µM
COc1nc2nn(-c3c(C)cc(C4CC4)cc3OC)cc2c(=O)[nH]1 [Example 29] | 0.054 µM
Cc1cc(Br)cc(C)c1-n1cc2c(=O)[nH]c(OCCC3COC3)nc2n1 [Example 30] | 0.051 µM
COc1nc2nn(-c3c(C)cc(C(C)(C)O)cc3C)cc2c(=O)[nH]1 [Example 31] | 2.4 µM
COc1nc2nn(-c3ccc(Cl)c(C)c3C)cc2c(=O)[nH]1 [Example 32] | 0.76 µM
Cc1cc(Br)cc(C)c1-n1cc2c(=O)[nH]c(OC(C)C)nc2n1 [Example 33] | 0.024 µM
CCOc1nc2nn(-c3c(C)cc(Br)cc3C)cc2c(=O)[nH]1 [Example 34] | 0.012 µM
Cc1cc(Br)cc(C)c1-n1cc2c(=O)[nH]c(OCCCS(C)(=O)=O)nc2n1 [Example 35] | 0.007 µM
Cc1cc(Br)cc(C)c1-n1cc2c(=O)[nH]c(O[C@@H]3CCOC3)nc2n1 [Example 36] | 0.019 µM
Cc1cc(Br)cc(C)c1-n1cc2c(=O)[nH]c(O[C@H]3CCOC3)nc2n1 [Example 37] | 0.013 µM
Cc1cc(C2CC2)cc(C)c1-n1cc2c(=O)[nH]c(OCCCS(C)(=O)=O)nc2n1 [Example 38] | 0.008 µM
COc1nc2nn(-c3c(C)cc(OC(F)F)cc3C)cc2c(=O)[nH]1 [Example 39, 2-(4-(difluoromethoxy)-2,6-dimethylphenyl)-6-methoxy-2,5-dihydro-4H-pyrazolo[3,4-d]pyrimidin-4-one] | 0.018 µM
COc1nc2nn(-c3ccc(C4CC4)cc3OC)cc2c(=O)[nH]1 [Example 40] | 0.049 µM
COCc1cc(Br)ccc1-n1cc2c(=O)[nH]c(OC)nc2n1 [Example 41] | 0.07 µM
COCc1cc(C2CC2)ccc1-n1cc2c(=O)[nH]c(OC)nc2n1 [Example 42] | 0.063 µM
COc1nc2nn(-c3ccc(Br)cc3C(F)(F)F)cc2c(=O)[nH]1 [Example 43] | 0.038 µM
Cc1cc(Br)cc(C)c1-n1cc2c(=O)[nH]c(OC3CCS(=O)(=O)CC3)nc2n1 [Example 44] | 0.043 µM
COc1nc2nn(-c3ccc(C4CC4)cc3C(F)(F)F)cc2c(=O)[nH]1 [Example 45] | 0.014 µM

Compound | IC50
Cc1cc(C2CC2)cc(C)c1-n1cc2c(=O)[nH]c(OC3CCS(=O)(=O)CC3)nc2n1 [Example 46] | 0.033 µM
COc1nc2nn(-c3ccc(Br)cc3C3CC3)cc2c(=O)[nH]1 [Example 47] | 0.053 µM
COc1ccc(-n2cc3c(=O)[nH]c(OC)nc3n2)c(C2CC2)c1 [Example 48] | 0.19 µM
CCOc1nc2nn(-c3ccc(OC)cc3Br)cc2c(=O)[nH]1 [Example 49] | 0.073 µM
CCOc1nc2nn(-c3c(C)cc(C4CC4)cc3C)cc2c(=O)[nH]1 [Example 50] | 0.01 µM
CCOc1nc2nn(-c3c(C)cc(OC)cc3C)cc2c(=O)[nH]1 [Example 51] | 0.027 µM
Cc1cc(Br)cc(C)c1-n1cc2c(=O)[nH]c(OC3CCC(S(C)(=O)=O)CC3)nc2n1 (centres unmarked) [Example 52] | 0.059 µM
CCOc1nc2nn(-c3c(C)cc(OC(F)F)cc3C)cc2c(=O)[nH]1 [Example 54] | 0.013 µM
COc1nc2nn(-c3ccc(Cl)cc3CC3CC3)cc2c(=O)[nH]1 [Example 55] | 0.07 µM
COc1nc2nn(-c3ccc(C4CC4)cc3C3CC3)cc2c(=O)[nH]1 [Example 56] | 0.018 µM
COc1nc2nn(-c3c(C)cc(Cl)cc3C)cc2c(=O)[nH]1 [Example 57] | 0.058 µM
Cc1cc(Br)cc(C)c1-n1cc2c(=O)[nH]c(OCCCS(=O)(=O)C(C)C)nc2n1 [Example 58] | 0.006 µM
COc1nc2nn(-c3ccc(Br)cc3C(F)F)cc2c(=O)[nH]1 [Example 59] | 0.055 µM
COc1nc2nn(-c3ccc(C4CC4)cc3C(F)F)cc2c(=O)[nH]1 [Example 60] | 0.016 µM
COc1nc2nn(-c3c(C)cc(OC(F)(F)F)cc3C)cc2c(=O)[nH]1 [Example 61] | 0.069 µM
Cc1cc(C2CC2)cc(C)c1-n1cc2c(=O)[nH]c(OCCCS(=O)(=O)C(C)C)nc2n1 [Example 62] | 0.004 µM
COc1nc2nn(-c3ccc(OC(F)F)cc3C(F)(F)F)cc2c(=O)[nH]1 [Example 63] | 0.08 µM
Cc1cc(Br)cc(C)c1-n1cc2c(=O)[nH]c(OCCCS(=O)(=O)C(C)(C)C)nc2n1 [Example 64] | 0.007 µM
COc1nc2nn(-c3c(C)cc(C(F)F)cc3C)cc2c(=O)[nH]1 [Example 65] | 0.14 µM
COc1nc2nn(-c3c(C)cc(OC(F)F)cc3F)cc2c(=O)[nH]1 [Example 66] | 0.078 µM
Cc1cc(Br)cc(C)c1-n1cc2c(=O)[nH]c(OCC(F)F)nc2n1 [Example 67] | 0.043 µM
Cc1cc(C2CC2)cc(C)c1-n1cc2c(=O)[nH]c(OCC(F)F)nc2n1 [Example 68] | 0.025 µM

From EP4671246A1, “6-ALKOXYPYRAZOLOPYRIMIDINE COMPOUND AND PHARMACEUTICAL USE THEREOF” (Japan Tobacco Inc., priority 2023, dated 2024)
